Experimental data published in EP0552223B1, “USE OF BENZENE DERIVATIVES AS CHARGE TRANSFER MEDIATORS” (NOVO NORDISK A/S, priority 1990, dated 1992).

Assays:
[1] = molecular target: T1, Glucose oxidase (GOD) (E.C.1.1.3.4.) (Aspergillus niger, UniProt P13006); assay: Cyclic voltammetry of GOD-graphite/paraffin pasta electrode containing the mediator; format: biochemical; conditions: Ag/AgCl ref.
Protocol: • 1) A paste containing GOD-immobilized graphite, paraffin and mediator is prepared. If the mediator has a big solubility in paraffin then 10 mg of mediator is used per ml of paraffin. If the mediator has a little solubility in paraffin then 50 mg of crystals are added per ml of paraffin in order to obtain a homogeneous mixture before graphite is added. The paste obtained is filled into sticks. • 2) The activity of the paste is determined in a cyclic voltametri equipment where the current is measured as a function of the potential (CV sweep). Five concentrations of glucose are measured, i.e., 0, 5, 10, 15 and 20 mM. Based upon the results obtained, the following is evaluated: • a) whether the mediator can be oxidized and reduced by the graphite electrode, • b) whether the mediator can be reduced of GOD, • c) the optimal potential for the electorde to be used, • d) whether a lineary response as a function of the concentration of glucose can be obtained using the concentration of mediator in question, • e) whether the concentration of the mediator can be optimized. • 3) The response as a function of time at the optimal potential is to be measured. The time interval within which the response represents a stable response for the concentration of glucose is to be evaluated. • 4) The stability of the mediator in the paste question is determined.
(§1) Glucose oxidase (GOD) (E.C.1.1.3.4.) was immobilized on graphite particles by the following procedure: 10 g of graphite was oxidized in air at 100°C for 24 hours. The surface oxidized graphite particles were activated with 500 mg of 1-cyclohexyl-3-(2-morpholinoethyl)carbodiimide metho-p-toluenesulfonate in 100 ml of 0.1 M acetate buffer (pH 4.76) for 2 hours, then washed with distilled water until an approximately neutral pH value and dried. The activated graphite was mixed with 30 ml of 0.01 phosphate buffer (pH 7.3) containing 80,000 IU GOD and 4% glutaraldehyde for 16 hours at 4°C, dried and sieved through a 48 mesh to obtain uniform particles.
(§2) 1 g of paraffin oil containing 5% Methylene green (4-nitro-3,7-bis(dimethylamino)phenothiazine) was mixed carefully with 2 g of GOD modified graphite to a uniform pasta.
(§3) The pasta was filled into a plastic rod in which it was possible to cut a thin cross-sectional slice to introduce a new well-defined electrode area. Before each measurement, the electrode surface was renewed. The working electrode area used was 3 mm^2.
In the study of the working electrode, an Ag auxiliary electrode and an Ag/AgCl reference electrode was used. In a cyclic voltammogram, a catalytic current from the reoxidation of the mediator was observed beginning at -50 mV and being stable between 50 and 400 mV. The current was proportional to the concentration of glucose used.
(§4) Data in the table are obtained using the same procedure as in Example 1.

[2] = molecular target: T1, Glucose oxidase (GOD) (E.C.1.1.3.4.); assay: Chronoamperometry of GOD-graphite/paraffin pasta electrode containing the mediator (glucose measurement); format: biochemical
Protocol: as §1, §2, §3
Chronoamperometry was preformed at 100 mV using the integrated current from 30 to 60 seconds after applying the potential. A linearity up to 40 mM glucose was obtained. The current was 500 nA/(sec*mM). The signal was not affected by the oxygen concentration in the solution. Reference pasta without Methylene green was not affected by different glucose concentrations.
as §4

[3] = Redox potential of the mediator at GC electrode; format: physicochemical; conditions: Ag/AgCl ref.; in mV (unit assumed)
From the text: as §4

[4] = Stability test of pasta rods with selected mediators stored at different temperatures; format: physicochemical; set-up: unit not given here
Protocol: The stability of a paste with a certain mediator can be determined using the following method:
The mediator is dissolved or mixed with paraffin and, thereafter, the enzyme coupled to graphite is added. The mixture is homogenized giving a paste. This paste is filled into electrode holders of plast giving so-called sticks. These sticks are tested using 0 and 10 mM glucose standards in order to characterize the activity of these sticks in relation to glucose. Thereafter, the paste containing sticks are stored at a constant temperature, for example, 4, 20, 35 and 54°C. After a certain period of time, for example 1 month, the sticks are tested using the 0 and 10 mM glucose standards and the activities measured are compared with the activity measured at originally.
Data are obtained using the same basis procedure as in Example 1. Rods with selected mediators were stored at different temperature to accelerate processes which could give new analytical performance.

Lactate oxidase = molecular target: T2, Lactate oxidase (Aerococcus viridans, UniProt Q44467); assay: Lactate assay with enzyme-graphite pasta electrode and mediator; format: biochemical; conditions: lactate system; at 100 mV vs. Ag/AgCl reference electrode
T2 construct: purchased Sigma
T2 sequence (Q44467 1-374): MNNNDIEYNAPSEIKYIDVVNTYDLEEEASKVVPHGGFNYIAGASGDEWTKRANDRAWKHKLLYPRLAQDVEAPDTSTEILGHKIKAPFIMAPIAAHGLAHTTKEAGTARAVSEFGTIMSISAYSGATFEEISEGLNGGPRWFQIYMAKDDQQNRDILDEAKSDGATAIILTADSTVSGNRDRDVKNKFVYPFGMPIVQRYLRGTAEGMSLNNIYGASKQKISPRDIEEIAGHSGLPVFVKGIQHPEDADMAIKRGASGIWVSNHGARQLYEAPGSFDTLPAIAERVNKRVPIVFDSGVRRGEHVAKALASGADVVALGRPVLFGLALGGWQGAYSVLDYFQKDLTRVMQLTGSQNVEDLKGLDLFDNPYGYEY
Protocol: Lactate oxidase and alcohol oxidase were obtained from Sigma and the enzymes were used as in Example 1. The same mediators as in Example 4 were tested in the electrodes. The best response for the lactate system was obtained with Methylene green, which gave a current density at 4 µA/cm^2/mM at 100 mV vs. Ag/AgCl reference electrode. For the alcohol system ethanol was used as enzyme substrate. The current density was much lower than for the lactate system and none of the tested mediators worked optimally. Other mediators sucessfully tested with glucose oxidase are expected to give higher current densitites due to differences in hydrophobicity and hydrophillicity.

T1 sequence (P13006 17-605, species assumed): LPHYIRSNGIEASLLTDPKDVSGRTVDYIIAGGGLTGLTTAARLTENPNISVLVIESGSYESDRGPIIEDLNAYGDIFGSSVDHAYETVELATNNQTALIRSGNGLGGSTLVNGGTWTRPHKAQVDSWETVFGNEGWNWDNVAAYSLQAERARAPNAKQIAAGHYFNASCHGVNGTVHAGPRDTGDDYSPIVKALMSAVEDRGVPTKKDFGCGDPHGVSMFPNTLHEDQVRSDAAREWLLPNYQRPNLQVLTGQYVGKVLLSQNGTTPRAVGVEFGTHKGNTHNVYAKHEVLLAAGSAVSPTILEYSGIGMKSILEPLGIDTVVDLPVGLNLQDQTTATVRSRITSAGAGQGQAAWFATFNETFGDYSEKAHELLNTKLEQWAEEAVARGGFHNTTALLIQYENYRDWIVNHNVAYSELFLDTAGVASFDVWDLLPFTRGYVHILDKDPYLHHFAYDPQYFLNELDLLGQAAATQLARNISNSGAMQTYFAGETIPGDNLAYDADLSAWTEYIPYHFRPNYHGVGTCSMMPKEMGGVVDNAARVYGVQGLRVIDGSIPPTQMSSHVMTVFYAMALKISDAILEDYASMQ

CN(C)c1ccc2c(c1)Sc1c(ccc(N(C)C)c1[N+](=O)[O-])N2 [MG, 4-nitro-3,7-bis(dimethylamino)phenothiazine]
Catalytic interval beginning at [1]: -50 mV | Working potential ([2]; Ag/AgCl ref.): 100 | SD% of 100 measurement ([2]; at 7mM glucose): 7.5% | Signal to noice ration ([2]; at 7mM glucose): 22.5 | signal affected by the oxygen concentration in the solution ([2]; at 100 mV): not affected | current ([2]; at 100 mV, integrated current from 30 to 60 seconds after applying the potential): 500 nA/(sec*mM) | Linearity ([2]; glucose): 40 mM | Linearity in mM ([2]; glucose, listed as Methylene green): up to 40 mM | Redoxpotential at GCElectrode [3]: -149 | activity of rod in stability test ([4]; 4°C, listed as a, Time 0): 13.7 | activity of rod in stability test ([4]; 4°C, listed as a, Time 75): 13.2 | activity of rod in stability test ([4]; 4°C, listed as b, Time 0): 10.0 | activity of rod in stability test ([4]; 4°C, listed as b, Time 75): 14.3 | activity of rod in stability test ([4]; 20°C, listed as a, Time 0): 14.9 | activity of rod in stability test ([4]; 20°C, listed as a, Time 75): 14.3 | activity of rod in stability test ([4]; 20°C, listed as b, Time 0): 12.5 | activity of rod in stability test ([4]; 20°C, listed as b, Time 75): 15.4 | activity of rod in stability test ([4]; 35°C, listed as a, Time 0): 12.1 | activity of rod in stability test ([4]; 35°C, listed as a, Time 75): 11.2 | activity of rod in stability test ([4]; 35°C, listed as b, Time 0): 13.3 | activity of rod in stability test ([4]; 35°C, listed as b, Time 75): 12.2 | activity of rod in stability test ([4]; 54°C, listed as a, Time 0): 15.8 | activity of rod in stability test ([4]; 54°C, listed as a, Time 75): 10.4 | activity of rod in stability test ([4]; 54°C, listed as b, Time 0): 12.8 | activity of rod in stability test ([4]; 54°C, listed as b, Time 75): 12.6 | current density (Lactate oxidase): 4 µA/cm^2/mM
